Experiments:
[1] = target: T1, Human δ-opioid (DOP) (Homo sapiens, UniProt P41143); assay: Radioligand binding, human δ-opioid (DOP) membranes, FlashPlate, [3H]-Bremazocine; details: compound at 10 μM, [3H]-Bremazocine
T1 construct: purchased Perkin Elmer Biosignal
Procedure, shortened: (§1)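 Cloned human receptor membranes were coated onto FlashPlate wells and incubated with radioligand and compound (added from a 0.5 mM DMSO daughter plate) for 1 hour at room temperature in the dark. Scintillation counting gave percent inhibition, with DMSO defining total and reference ligand defining non-specific binding.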

[2] = target: T2, Human κ-Opioid (KOP) (Homo sapiens, UniProt P41145); assay: Radioligand binding, human κ-opioid (KOP) membranes, filtration, [3H]-Diprenorphine; details: compound at 10 μM, [3H]-Diprenorphine
T2 construct: purchased Perkin Elmer Biosignal
T2 sequence (P41145 whole entry): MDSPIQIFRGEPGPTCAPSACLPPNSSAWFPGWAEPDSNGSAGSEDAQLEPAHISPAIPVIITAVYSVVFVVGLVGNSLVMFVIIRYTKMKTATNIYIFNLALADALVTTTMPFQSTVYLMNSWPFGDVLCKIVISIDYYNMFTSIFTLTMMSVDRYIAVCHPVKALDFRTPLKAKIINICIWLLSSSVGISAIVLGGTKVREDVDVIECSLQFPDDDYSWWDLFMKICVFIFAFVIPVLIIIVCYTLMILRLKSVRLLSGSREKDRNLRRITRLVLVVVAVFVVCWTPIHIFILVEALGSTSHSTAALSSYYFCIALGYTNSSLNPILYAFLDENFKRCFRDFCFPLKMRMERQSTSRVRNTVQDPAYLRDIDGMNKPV
Procedure, shortened: (§2)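 Filtration binding on cloned human receptor membranes (1 Unit/well), [125I]-Substance P for NK1 and [3H]-Diprenorphine for KOP, 1 h at room temperature. Filters PEI-presoaked, washed with cold 50 mM Tris-HCl pH 7.4, counted by scintillation; percent inhibition calculated, reference ligand defining non-specific binding.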

[3] = target: T3, Human Melanocortin (MC3) (Homo sapiens, UniProt P41968); assay: Radioligand binding, human melanocortin MC3 membranes, FlashPlate, [125I]-NDP-αMSH; details: compound at 10 μM, [125I]-NDP-αMSH
T3 construct: purchased Perkin Elmer Biosignal
T3 sequence (P41968 whole entry): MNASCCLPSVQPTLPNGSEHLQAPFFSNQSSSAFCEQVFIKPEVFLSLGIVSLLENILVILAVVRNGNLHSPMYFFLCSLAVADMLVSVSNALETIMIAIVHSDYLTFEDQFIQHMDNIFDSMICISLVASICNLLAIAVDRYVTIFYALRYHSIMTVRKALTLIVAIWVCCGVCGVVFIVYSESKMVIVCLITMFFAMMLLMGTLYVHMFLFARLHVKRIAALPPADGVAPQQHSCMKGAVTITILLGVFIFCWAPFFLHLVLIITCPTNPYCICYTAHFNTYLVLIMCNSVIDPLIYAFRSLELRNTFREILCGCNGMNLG
Procedure, shortened: as §1

[4] = target: T4, Human Melanocortin (MC4) (Homo sapiens, UniProt P32245); assay: Radioligand binding, human melanocortin MC4 membranes, FlashPlate, [125I]-NDP-αMSH; details: compound at 10 μM, [125I]-NDP-αMSH
T4 construct: purchased Perkin Elmer Biosignal
T4 sequence (P32245 whole entry): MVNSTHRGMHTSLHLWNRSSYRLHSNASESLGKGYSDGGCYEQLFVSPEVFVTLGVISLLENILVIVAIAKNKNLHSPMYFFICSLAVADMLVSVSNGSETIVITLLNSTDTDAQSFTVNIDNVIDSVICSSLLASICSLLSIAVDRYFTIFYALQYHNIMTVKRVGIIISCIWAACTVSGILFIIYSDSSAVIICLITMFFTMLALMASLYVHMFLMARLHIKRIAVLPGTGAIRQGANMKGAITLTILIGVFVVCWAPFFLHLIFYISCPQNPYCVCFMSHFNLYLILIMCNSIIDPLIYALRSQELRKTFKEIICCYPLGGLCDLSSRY
Procedure, shortened: as §1

[5] = target: T5, Human melanocortin (MC5) (Homo sapiens, UniProt P33032); assay: Radioligand binding, human melanocortin MC5 membranes, FlashPlate, [125I]-NDP-αMSH; details: compound at 10 μM, [125I]-NDP-αMSH
T5 construct: purchased Perkin Elmer Biosignal
T5 sequence (P33032 whole entry): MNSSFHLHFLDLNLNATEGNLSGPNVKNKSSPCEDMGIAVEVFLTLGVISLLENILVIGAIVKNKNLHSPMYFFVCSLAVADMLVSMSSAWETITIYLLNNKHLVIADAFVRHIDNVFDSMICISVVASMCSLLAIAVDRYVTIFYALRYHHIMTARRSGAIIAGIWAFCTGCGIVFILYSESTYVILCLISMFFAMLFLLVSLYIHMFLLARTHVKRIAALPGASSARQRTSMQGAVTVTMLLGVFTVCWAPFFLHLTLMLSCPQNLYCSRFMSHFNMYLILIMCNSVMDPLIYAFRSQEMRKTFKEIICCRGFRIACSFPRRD
Procedure, shortened: as §1

[6] = target: T6, Human melanin-concentrating hormone (MCH1) (Homo sapiens, UniProt Q99705); assay: Radioligand binding, human melanin-concentrating hormone MCH1 membranes, FlashPlate, [125I]-S36057; details: compound at 10 μM; for A6: inhibition of radioligand binding, human melanin-concentrating hormone (MCH1) / A6 radioligand binding, percentage inhibition: [125I]-S36057
T6 construct: purchased Perkin Elmer Biosignal
T6 sequence (Q99705 whole entry): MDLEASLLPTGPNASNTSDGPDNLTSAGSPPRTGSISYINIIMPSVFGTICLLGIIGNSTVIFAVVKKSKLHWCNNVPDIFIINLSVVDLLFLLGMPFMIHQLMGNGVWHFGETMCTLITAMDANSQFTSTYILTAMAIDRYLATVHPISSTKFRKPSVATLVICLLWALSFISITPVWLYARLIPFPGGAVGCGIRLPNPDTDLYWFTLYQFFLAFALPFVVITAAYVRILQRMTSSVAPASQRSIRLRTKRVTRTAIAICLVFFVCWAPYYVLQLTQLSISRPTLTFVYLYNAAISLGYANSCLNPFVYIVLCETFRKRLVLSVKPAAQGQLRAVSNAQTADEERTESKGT
Procedure, shortened: as §1

[7] = target: T7, Human μ-opioid (MOP) (Homo sapiens, UniProt P35372); assay: Radioligand binding, human μ-opioid (MOP) membranes, FlashPlate, [3H]-Naloxone; details: compound at 10 μM, [3H]-Naloxone
T7 construct: purchased Perkin Elmer Biosignal
T7 sequence (P35372 whole entry): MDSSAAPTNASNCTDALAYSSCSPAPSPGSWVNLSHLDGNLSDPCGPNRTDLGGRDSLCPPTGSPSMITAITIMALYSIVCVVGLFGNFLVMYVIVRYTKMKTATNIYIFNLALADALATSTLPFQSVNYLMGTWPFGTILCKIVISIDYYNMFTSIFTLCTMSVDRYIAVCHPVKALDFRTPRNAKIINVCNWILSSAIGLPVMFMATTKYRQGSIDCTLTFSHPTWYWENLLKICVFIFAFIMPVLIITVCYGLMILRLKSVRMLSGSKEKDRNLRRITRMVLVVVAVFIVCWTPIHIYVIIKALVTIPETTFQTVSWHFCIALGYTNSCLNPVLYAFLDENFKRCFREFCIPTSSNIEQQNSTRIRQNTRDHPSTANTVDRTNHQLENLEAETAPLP
Procedure, shortened: as §1

[8] = target: T8, Human neurokinin (NK1) (Homo sapiens, UniProt P25103); assay: Radioligand binding, human neurokinin NK1 membranes, filtration, [125I]-Substance P; details: compound at 10 μM, [125I]-Substance P
T8 construct: purchased Perkin Elmer Biosignal
T8 sequence (P25103 whole entry): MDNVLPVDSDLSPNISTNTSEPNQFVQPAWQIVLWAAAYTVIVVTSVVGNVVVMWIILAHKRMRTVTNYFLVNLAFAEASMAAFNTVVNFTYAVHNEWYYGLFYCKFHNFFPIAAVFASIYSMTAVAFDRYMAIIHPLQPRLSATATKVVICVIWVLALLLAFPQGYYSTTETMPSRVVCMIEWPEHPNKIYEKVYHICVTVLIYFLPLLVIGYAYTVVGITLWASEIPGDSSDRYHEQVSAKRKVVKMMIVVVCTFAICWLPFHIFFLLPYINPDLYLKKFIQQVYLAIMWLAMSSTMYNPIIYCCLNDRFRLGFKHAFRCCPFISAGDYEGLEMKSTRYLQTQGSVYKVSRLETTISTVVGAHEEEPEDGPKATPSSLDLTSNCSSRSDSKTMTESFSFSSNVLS
Procedure, shortened: as §2

[9] = target: T9, Human neuropeptide Y (NPY-Y1) (Homo sapiens, UniProt P25929); assay: Radioligand binding, human neuropeptide Y NPY-Y1 membranes, FlashPlate, [125I]-PYY; details: compound at 10 μM, [125I]-PYY
T9 construct: purchased Perkin Elmer Biosignal
T9 sequence (P25929 1-384): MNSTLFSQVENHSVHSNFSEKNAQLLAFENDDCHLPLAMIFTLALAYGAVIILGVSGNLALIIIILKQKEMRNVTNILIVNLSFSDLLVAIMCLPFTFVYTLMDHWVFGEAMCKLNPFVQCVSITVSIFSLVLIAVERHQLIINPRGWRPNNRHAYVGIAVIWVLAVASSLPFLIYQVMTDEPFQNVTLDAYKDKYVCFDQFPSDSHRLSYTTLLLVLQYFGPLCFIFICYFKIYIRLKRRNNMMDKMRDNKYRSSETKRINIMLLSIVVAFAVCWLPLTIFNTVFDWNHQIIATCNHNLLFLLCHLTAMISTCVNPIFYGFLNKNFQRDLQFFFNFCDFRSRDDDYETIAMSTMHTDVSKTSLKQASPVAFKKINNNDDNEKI
Procedure, shortened: as §1

[10] = target: T10, Human opioid (ORL1) (Homo sapiens, UniProt P41146); assay: Radioligand binding, human opioid ORL1 membranes, FlashPlate, [125I]-Nociceptin; details: compound at 10 μM, [125I]-Nociceptin
T10 construct: purchased Perkin Elmer Biosignal
T10 sequence (P41146 whole entry): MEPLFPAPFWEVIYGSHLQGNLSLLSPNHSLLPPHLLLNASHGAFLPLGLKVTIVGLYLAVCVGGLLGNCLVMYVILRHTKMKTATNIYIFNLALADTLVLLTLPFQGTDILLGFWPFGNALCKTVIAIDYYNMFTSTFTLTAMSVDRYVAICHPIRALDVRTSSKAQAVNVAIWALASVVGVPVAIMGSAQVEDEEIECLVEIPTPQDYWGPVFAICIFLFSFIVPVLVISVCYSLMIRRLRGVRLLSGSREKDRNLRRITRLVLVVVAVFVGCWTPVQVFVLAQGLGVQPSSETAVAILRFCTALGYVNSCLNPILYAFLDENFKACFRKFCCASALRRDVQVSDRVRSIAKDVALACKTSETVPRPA
Procedure, shortened: as §1

[11] = target: T11, Mouse urotensin (mUR2) (Mus musculus, UniProt Q8VIH9); assay: Radioligand binding, mouse urotensin mUR2 membranes, FlashPlate, [125I]-Urotensin II; details: compound at 10 μM, [125I]-Urotensin II
T11 construct: purchased Perkin Elmer Biosignal
T11 sequence (Q8VIH9 1-385): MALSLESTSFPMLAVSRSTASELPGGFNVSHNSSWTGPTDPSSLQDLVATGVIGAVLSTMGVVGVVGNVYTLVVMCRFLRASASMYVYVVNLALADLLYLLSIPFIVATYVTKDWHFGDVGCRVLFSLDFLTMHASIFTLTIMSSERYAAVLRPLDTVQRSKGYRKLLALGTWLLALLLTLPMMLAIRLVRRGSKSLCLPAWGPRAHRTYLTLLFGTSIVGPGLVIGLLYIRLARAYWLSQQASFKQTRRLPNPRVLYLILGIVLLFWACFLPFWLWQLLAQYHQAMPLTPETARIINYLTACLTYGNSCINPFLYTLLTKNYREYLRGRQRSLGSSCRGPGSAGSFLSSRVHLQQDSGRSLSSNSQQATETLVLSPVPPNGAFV
Procedure, shortened: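 Cloned mouse urotensin (mUR2) receptor membranes from Perkin Elmer Biosignal were immobilized in FlashPlate microplates using a proprietary coating. Each well got 19.5 μl buffer, then 0.5 μl of DMSO, reference ligand, or compound. Adding 5 μl of [125I]-Urotensin II, diluted to 5× final concentration in binding buffer, started binding. Plates were sealed with TopSeal-A and incubated 1 hour at room temperature in the dark. Wells were counted for 30 seconds each on a TopCount after a 60-second delay, and percentage inhibition was calculated.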

T1 sequence (P41143 whole entry): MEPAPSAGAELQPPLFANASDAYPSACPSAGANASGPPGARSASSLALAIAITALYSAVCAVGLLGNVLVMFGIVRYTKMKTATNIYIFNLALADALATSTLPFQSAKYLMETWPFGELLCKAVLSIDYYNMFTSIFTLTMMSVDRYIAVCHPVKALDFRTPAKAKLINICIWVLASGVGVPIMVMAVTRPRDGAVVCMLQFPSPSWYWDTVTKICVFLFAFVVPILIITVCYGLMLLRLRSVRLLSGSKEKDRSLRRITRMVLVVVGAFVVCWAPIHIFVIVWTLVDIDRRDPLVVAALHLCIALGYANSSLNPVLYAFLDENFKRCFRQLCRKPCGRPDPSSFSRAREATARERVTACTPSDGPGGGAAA

| Structure (SMILES) | A1: inhibition of radioligand binding, human δ-opioid (DOP) [1] | A2: inhibition of radioligand binding, human κ-opioid (KOP) [2] | A3: inhibition of radioligand binding, human melanocortin (MC3) [3] | A4: inhibition of radioligand binding, human melanocortin (MC4) [4] | A5: inhibition of radioligand binding, human melanocortin (MC5) [5] | A6: inhibition of radioligand binding, human melanin-concentrating hormone (MCH1) [6] | A7: inhibition of radioligand binding, human μ-opioid (MOP) [7] | A8: inhibition of radioligand binding, human neurokinin (NK1) [8] | A9: inhibition of radioligand binding, human neuropeptide Y (NPY-Y1) [9] | A1 radioligand binding, percentage inhibition [1] | A2 radioligand binding, percentage inhibition [2] | A3 radioligand binding, percentage inhibition [3] | A4 radioligand binding, percentage inhibition [4] | A5 radioligand binding, percentage inhibition [5] | A6 radioligand binding, percentage inhibition [6] | A7 radioligand binding, percentage inhibition [7] | A8 radioligand binding, percentage inhibition [8] | A9 radioligand binding, percentage inhibition [9] | A10 radioligand binding, percentage inhibition [10] | A11 radioligand binding, percentage inhibition [11] | other results |
| --- | --- | --- | --- | --- | --- | --- | --- | --- | --- | --- | --- | --- | --- | --- | --- | --- | --- | --- | --- | --- | --- |
| CC(=O)N[C@H]1C(NC(=O)CNC(=O)OC(C)(C)C)O[C@H](CO)[C@@H](O)[C@@H]1OCc1ccccc1 (stereo partly drawn) [compound 359] | − (“−” indicates less than 50% inhibition at 10 μM) | − (“−” indicates less than 50% inhibition at 10 μM) | − (“−” indicates less than 50% inhibition at 10 μM) | − (“−” indicates less than 50% inhibition at 10 μM) | − (“−” indicates less than 50% inhibition at 10 μM) | − (“−” indicates less than 50% inhibition at 10 μM) | − (“−” indicates less than 50% inhibition at 10 μM) | + (“+” indicates greater than 50% inhibition at 10 μM) | + (“+” indicates greater than 50% inhibition at 10 μM) | – | – | – | – | – | – | – | – | – | – | – | A10: inhibition of radioligand binding, human opioid (ORL1) [10]: − (“−” indicates less than 50% inhibition at 10 μM); A11: inhibition of radioligand binding, mouse urotensin (mUR2) [11]: − (“−” indicates less than 50% inhibition at 10 μM) |
| CSC1OC(COCc2ccccc2)C(O)C(OCc2ccc(Cl)cc2)C1NC(=O)CNC(=N)N (stereo not drawn) [compound 265] | – | – | – | – | – | – | – | – | – | – | – | – | – | – | – | – | – | – | – | – | A1: inhibition of radioligand binding ([1]; FlashPlate): − (“−” indicates less than 50% inhibition at 10 μM); A2: inhibition of radioligand binding ([2]; filtration): − (“−” indicates less than 50% inhibition at 10 μM); A3: inhibition of radioligand binding ([3]; FlashPlate): − (“−” indicates less than 50% inhibition at 10 μM); A4: inhibition of radioligand binding ([4]; FlashPlate): + (“+” indicates greater than 50% inhibition at 10 μM); A5: inhibition of radioligand binding ([5]; FlashPlate): − (“−” indicates less than 50% inhibition at 10 μM); A6: inhibition of radioligand binding ([6]; [125I]-S36057, FlashPlate): − (“−” indicates less than 50% inhibition at 10 μM); A7: inhibition of radioligand binding ([7]; FlashPlate): − (“−” indicates less than 50% inhibition at 10 μM); A8: inhibition of radioligand binding ([8]; filtration): + (“+” indicates greater than 50% inhibition at 10 μM); A9: inhibition of radioligand binding ([9]; FlashPlate): − (“−” indicates less than 50% inhibition at 10 μM); A10: inhibition of radioligand binding ([10]; FlashPlate): − (“−” indicates less than 50% inhibition at 10 μM); A11: inhibition of radioligand binding ([11]; FlashPlate): − (“−” indicates less than 50% inhibition at 10 μM) |
| N=C(N)NCC(=O)N[C@H]1C(OCc2ccc(Cl)cc2)O[C@H](COCc2ccc(Cl)cc2)[C@@H](O)[C@@H]1OCc1ccc2ccccc2c1 (stereo partly drawn) [compound 516] | − (“−” indicates less than 50% inhibition at 10 μM) | − (“−” indicates less than 50% inhibition at 10 μM) | + (“+” indicates greater than 50% inhibition at 10 μM) | + (“+” indicates greater than 50% inhibition at 10 μM) | + (“+” indicates greater than 50% inhibition at 10 μM) | + (“+” indicates greater than 50% inhibition at 10 μM) | − (“−” indicates less than 50% inhibition at 10 μM) | + (“+” indicates greater than 50% inhibition at 10 μM) | − (“−” indicates less than 50% inhibition at 10 μM) | – | – | – | – | – | – | – | – | – | – | – | A10: inhibition of radioligand binding, human opioid (ORL1) ([10]; 10 µM): − (“−” indicates less than 50% inhibition at 10 μM); A11: inhibition of radioligand binding, mouse urotensin (mUR2) [11]: − (“−” indicates less than 50% inhibition at 10 μM) |
| CO[C@H]1[C@H](O)[C@@H](COCc2ccc(-c3ccccc3)cc2)OC(OCCc2ccccc2)[C@@H]1NC(=O)CNC(=N)N (stereo partly drawn) [compound 109] | – | – | – | – | – | – | – | – | – | − (“−” indicates less than 50% inhibition at 10 μM) | − (“−” indicates less than 50% inhibition at 10 μM) | + (“+” indicates greater than 50% inhibition at 10 μM) | + (“+” indicates greater than 50% inhibition at 10 μM) | + (“+” indicates greater than 50% inhibition at 10 μM) | − (“−” indicates less than 50% inhibition at 10 μM) | − (“−” indicates less than 50% inhibition at 10 μM) | − (“−” indicates less than 50% inhibition at 10 μM) | − (“−” indicates less than 50% inhibition at 10 μM) | − (“−” indicates less than 50% inhibition at 10 μM) | − (“−” indicates less than 50% inhibition at 10 μM) | – |
| COC[C@H]1OC(OCCc2ccccc2)[C@H](NC(=O)CCCN)[C@@H](OCc2cccc(O)c2)[C@@H]1O (stereo partly drawn) [compound 140] | – | – | – | – | – | – | – | – | – | − (“−” indicates less than 50% inhibition at 10 μM) | − (“−” indicates less than 50% inhibition at 10 μM) | − (“−” indicates less than 50% inhibition at 10 μM) | − (“−” indicates less than 50% inhibition at 10 μM) | − (“−” indicates less than 50% inhibition at 10 μM) | − (“−” indicates less than 50% inhibition at 10 μM) | − (“−” indicates less than 50% inhibition at 10 μM) | + (“+” indicates greater than 50% inhibition at 10 μM) | − (“−” indicates less than 50% inhibition at 10 μM) | − (“−” indicates less than 50% inhibition at 10 μM) | − (“−” indicates less than 50% inhibition at 10 μM) | – |
| CO[C@H]1[C@H](O)[C@@H](COCc2ccccc2)OC(OCCNC(=N)N)[C@@H]1NC(=O)c1c[nH]c2ccccc12 (stereo partly drawn) [compound 125] | – | – | – | – | – | – | – | – | – | − (“−” indicates less than 50% inhibition at 10 μM) | − (“−” indicates less than 50% inhibition at 10 μM) | − (“−” indicates less than 50% inhibition at 10 μM) | − (“−” indicates less than 50% inhibition at 10 μM) | − (“−” indicates less than 50% inhibition at 10 μM) | − (“−” indicates less than 50% inhibition at 10 μM) | − (“−” indicates less than 50% inhibition at 10 μM) | + (“+” indicates greater than 50% inhibition at 10 μM) | − (“−” indicates less than 50% inhibition at 10 μM) | − (“−” indicates less than 50% inhibition at 10 μM) | − (“−” indicates less than 50% inhibition at 10 μM) | – |
